Measurements published in patent publication US9359409B2, “Antimicrobial peptides, compositions comprising the same and uses thereof” (priority 2012, dated 2016).
Where two headings read alike, the source gives them in different places. Ends that are not written are not given here.

Tests used:
Escherichia coli = tested on: Escherichia coli
Procedure: (§1) The 5 designed and synthesized peptides of the invention, plus omiganan (peptide of the state of the art) were evaluated for their antimicrobial capacity in microdilution assays for determining the minimum inhibitory concentration (MIC). A first panel of 8 representative strains was analyzed in these assays, encompassing Gram positive and Gram negative bacteria. […] The lowest MIC values indicate a higher antimicrobial potency.
(§2) Subsequently, an analysis of a panel of clinical isolates including strains with different resistance mechanisms against conventional antibiotics was carried out, all of which are of clinical relevance. […] In Table 3 the results for a panel of Gram negative bacteria are shown, and in Table 4 for a panel of […] bacteria. In these tables the detected gene/s responsible for the resistance against antibiotics for each strain, are included.
(§3) Antimicrobial activity was analyzed by means of the determination of the MIC (minimum inhibitory concentration) by the microdilution technique. The technique was carried out in the standard fashion according to (CLSI M07-A9 Vol. 32 No 2. January 2012). The peptide concentration range used was from 0.5 μg/mL to 512 μg/mL in two-fold serial dilutions. The used medium was MH Difco broth supplemented with cations, at a final concentration of Ca^++20-25 mg/L and Mg^++10-12.5 mg/L. The working inoculum used corresponds to a 1/100 dilution of a bacterial suspension equivalent to 0.5 in the Mc Farland scale.

Klebsiella pneumoniae = tested on: Klebsiella pneumoniae
Procedure: as §1, §2, §3

A. baumanii = tested on: A. baumanii
Procedure: as §2, §3

S. saprophyticus = tested on: S. saprophyticus
Procedure: as §2, §3

E. gallinarum = tested on: E. gallinarum
Procedure: as §2, §3

E. faecalis = tested on: E. faecalis
Procedure: as §2, §3

E. raffinosus = E. raffinosus M6187, resistance gene vanA
Procedure: as §2, §3

S. haemolyticus = tested on: S. haemolyticus
Procedure: as §2, §3

S. hominis = tested on: S. hominis
Procedure: as §2, §3

A. junii = A. junii M9013, resistance gene oxa-51 + imp
Procedure: as §2, §3

human erythrocytes = assay: Erythrocyte hemolysis assay (cytotoxicity); type: cell-based; settings: peptide 128 ug/ml
Procedure: Subsequently, the capacity of the peptides of the invention for lysing human erythrocytes was evaluated, as a measure of their cytotoxicity (Table 2). The assays were carried out according to the Examples and are expressed as a percentage of total lysis obtained with either water or the surfactant Tween 20. In this assays, the lower hemolysis percentage, the lower expected cytotoxic activity.
Evaluation of cytotoxic activity was performed by means of an erythrocyte hemolysis assay (according to Pure Appl. Chem., Vol. 79, No. 4, pp. 717-728, 2007). In brief, from a volume of heparinized human whole blood, 3 times that volume of PBS is added and centrifuged 10 minutes at 1500 rpm, repeating the washing two more times. 10% blood solutions in PBS were prepared with that pellet. Subsequently, each group was added the corresponding peptide at the indicated concentration and incubated at 37° C. for 30 minutes. […]

S. aureus = type: cell-based; settings: non-amidated peptides
Procedure: (§4) In vitro sensitivity assay of aerobically growing bacteria, using the disc diffusion method was performed according to the standards in the M2 document of the CLSI (Clinical and Laboratory Standards Institute: Performance Standards for Antimicrobial Disk Susceptibility Tests.) using the non-amidated peptides
(§5) In brief, intermediate solutions (10×) of the antimicrobial non-amidated peptides were prepared by serial dilutions 1:2, 1:4 and 1:8 by two-fold dilutions. Then, one part of the solution of the antimicrobial peptide 10× was added to nine parts of melted bacteriological agar. The antibiotic solution was added for each dilution, in the melted agar and cooled to 45-50° C. in a water bath. Then, the agar-antibiotic mixture was placed in a Petri dish until a 3-4 mm depth was reached. The inoculum is prepared with a turbidity of 0.5 in the McFarland scale (approximately 1-2 10^8 CFU/ml). The final inoculum required for the agar dilution test is 10^4 colony forming units (CFU) per “spot” having 5-8 mm in diameter. The inoculated plates must be incubated upside down at 35° C. for a period of 16-20 hs. MIC was recorded as the value of the lower dilution completely inhibiting bacterial development, without considering the development of a single colony or a slight film caused by the inoculum deposit. The final point in these cases will correspond to the concentration at which there is more than 80% reduction in growth as compared with the control.

E. coli = type: cell-based; settings: non-amidated peptides; E. coli ATCC 25922, WT
Procedure: as §4, §5

S. warnerii = type: cell-based
Procedure: as §4, §5

P. aeruginosa = type: cell-based
Procedure: as §4, §5

S. cohnii = type: cell-based
Procedure: as §4, §5

K. pneumoniae = type: cell-based; settings: non-amidated peptides; K. pneumoniae M13540, KPC
Procedure: as §4, §5

Substance “ILRWPWWPWRRK-NH2 [Omiganan, ILRWPWWPWRRK, reference compound]” has an MIC (Escherichia coli; E. coli ABC11, resistance gene ctx-m-2) of 64 mg/L, an MIC (Escherichia coli; E. coli Cos15, resistance gene per + tem) of 64 mg/L and an MIC (Escherichia coli; E. coli LCA1, resistance gene ctx-m-2 + tem-1) of 64 mg/L. For the same substance, the MIC (Escherichia coli; E. coli M5306, resistance gene ctx-m-2 + tem-1 + per-2) was 64 mg/L, the MIC (Escherichia coli; E. coli M7859, resistance gene cit) was 64 mg/L and the MIC (Escherichia coli; E. coli M9209, resistance gene kpc) was 64 mg/L. It also gave an MIC (Escherichia coli; E. coli NEU23, resistance gene oxa-GIII + tem) of 32 mg/L, an MIC (Klebsiella pneumoniae; K. Pneumoniae M9885, resistance gene kpc) of 256 mg/L and an MIC (Klebsiella pneumoniae; K. pneumoniae M9170, resistance gene oxa-GIII) of 128 mg/L. The MIC (Klebsiella pneumoniae; K. pneumoniae M9491, resistance gene mox) was 128 mg/L, the MIC (Klebsiella pneumoniae; K. pneumoniae M13540, resistance gene kpc) was 256 mg/L and the MIC (A. baumanii; A. baumanii FAV-1, resistance gene per + oxa-51 + oxa-58) was 64 mg/L. It also gave an MIC (A. baumanii; A. baumanii M5179, resistance gene oxa-51) of 64 mg/L, an MIC (A. baumanii; A. baumanii M5277, resistance gene per) of 32 mg/L and an MIC (A. baumanii; A. baumanii M5282, resistance gene oxa-51) of 16 mg/L. The MIC (A. baumanii; A. baumanii M7489, resistance gene oxa-51 + tem) was 32 mg/L, the MIC (A. baumanii; A. baumanii M7978, resistance gene imp) was 64 mg/L and the MIC (A. baumanii; A. baumanii M9665, resistance gene oxa-51) was 64 mg/L. It also gave an MIC (A. baumanii; A. baumanii M13523, resistance gene oxa-51) of 64 mg/L, an MIC (S. saprophyticus) of 8 mg/L and an MIC (E. gallinarum; E. gallinarum M2685, resistance gene vanC1 + vanA) of 16 mg/L. For the same substance, the MIC (E. gallinarum; E. gallinarum M2723, resistance gene vanC1 + vanA) was 16 mg/L, the MIC (E. faecalis) was 128 mg/L and the MIC (E. faecalis; E. faecalis ATCC 51299, resistance gene vanB) was 256 mg/L. For the same substance, the MIC (E. faecalis; E. faecalis M4449, resistance gene vanA) was 128 mg/L, the MIC (E. faecalis; E. faecalis M4899, resistance gene vanB) was 256 mg/L and the MIC (E. faecalis; E. faecalis M4992, resistance gene vanA) was 128 mg/L. For the same substance, the MIC (E. faecalis; E. faecalis M6383, resistance gene vanA) was 128 mg/L, the MIC (E. faecalis; E. faecalis M6534, resistance gene vanB) was 256 mg/L and the MIC (E. faecalis; E. faecalis M6983, resistance gene vanA) was 128 mg/L. The MIC (E. raffinosus) was 4 mg/L, the MIC (S. haemolyticus) was 4 mg/L and the MIC (S. hominis) was 4 mg/L. The MIC (A. junii) was 64 mg/L, the “Hemolysis % (1% Tween20)” value (human erythrocytes; percentage of total lysis obtained with 1% Tween20) was 11.6% and the “Hemolysis % (water)” value (human erythrocytes; percentage of total lysis obtained with water) was 10%. The “OD 540 nm” value (human erythrocytes; supernatant of human erythrocytes, 37° C., 30 minutes) was 0.171, the “MIC in agar dilution” value (S. aureus; S. aureus ATCC29213, MSSA) was greater than 128 mg/L and the “MIC in agar dilution” value (S. aureus; S. aureus M6794, MRSA) was greater than 128 mg/L. For the same substance, the “MIC in agar dilution” value (E. coli) was greater than 128 mg/L, the “MIC in agar dilution” value (S. warnerii) was 16 mg/L and the “MIC in agar dilution” value (P. aeruginosa) was greater than 128 mg/L. The “MIC in agar dilution” value (P. aeruginosa; non-amidated peptides, P. aeruginosa M13513, KPC) was greater than 128 mg/L, the “MIC in agar dilution” value (S. cohnii) was 16 mg/L and the “MIC in agar dilution” value (K. pneumoniae) was greater than 128 mg/L.
